Assays:
WDR5 = WDR5 (Homo sapiens, UniProt P61964); assay: WDR5 HTRF binding assay; settings: read-out: (a) WDR5 HTRF Pep Val v.1[Inhibitor/IC50]Qualified AC50
Summary of the method: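 6 nM WDR5 and 20 nM biotin-MLL1 WIN peptide (3762-3773) were incubated with compound (12-point, 3-fold dilutions) in pH 7.5 Hepes/NaCl/DTT buffer for 20 min at rt. Streptavidin-APC plus anti-His-Eu were then added for 1 hr, with HTRF read at 665/615. IC50 was fit from control-normalized activity; the counter assay used 15 nM biotin-PEG-His peptide.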

[1] = biological target: wild type MLL1 four-member complex (MLL1-4C) (Homo sapiens, UniProt P61964); assay: MLL1 LC-MS assay (SAH production); type: biochemical; settings: read-out: (b) MLL LCMS Peptide Val.v.1 Qualified AC50
Summary of the method: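 MLL1-4C (30 nM final) was preincubated 20 min with compound (3-fold dilutions, 8 or 12 points) and SAM in Tris-HCl pH 8.0 buffer. H3K4me0 peptide (histone H3[1-21]-biotin) was then added, giving final 2.5 μM SAM and 10 μM substrate, and reactions ran 120 min at rt. After TFA/d4-SAH quench, SAH was quantified by LC-MS/MS and IC50 fitted from control-normalised activity.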

MV4-11 cells = assay: MV4-11 6-day cell growth CTG (CellTiter-Glo) assay; type: cell-based; settings: Homo sapiens, MV4-11, 144 h, 6 days, read-out: (c) MLL/WDR5 cell proliferation assay//MLL/WDR5 proliferation MV4:11 Qualified AC50
Summary of the method: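 Exponentially growing MV4-11 AML cells (RPMI 1640, 10% FBS) seeded at 300 cells/well with 12-point 1:3 compound dilutions, top final concentration 50 μM. Viability read by CellTiter-Glo luminescence after 6 days at 37° C; % inhibition vs DMSO-only wells fitted to dose-response for IC50.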

Row | IC50 (WDR5) | AC50 [1] | SMILES | AC50 (MV4-11 cells)
1 | < 10 nM | 10 to 1000 nM | CCOc1cc([C@H](C)N2CCc3c(cc(CCN(C)CC)cc3-c3cn(C)c(=O)cc3Cl)C2=O)ncc1C#N [Example 175, (S)-6-(1-(5-(4-chloro-1-methyl-6-oxo-1,6-dihydropyridin-3-yl)-7-(2-(ethyl(methyl)amino)ethyl)-1-oxo-3,4-dihydroisoquinolin-2(1H)-yl)ethyl)-4-ethoxynicotinonitrile] | 10 to 1000 nM
2 | < 10 nM | 10 to 1000 nM | CCOc1cc([C@H](C)N2CCc3c(cc(CCN(C)CC)cc3-c3ccnc(F)c3C)C2=O)ncc1C#N [Example 117, (S)-4-ethoxy-6-(1-(7-(2-(ethyl(methyl)amino)ethyl)-5-(2-fluoro-3-methylpyridin-4-yl)-1-oxo-3,4-dihydroisoquinolin-2(1H)-yl)ethyl)nicotinonitrile] | 10 to 1000 nM
3 | 10 to 1000 nM | 10 to 1000 nM | CCOc1cc(CN2CCc3c(cc(Cn4ccnc4C)cc3-c3cn(C)nc3C)C2=O)ncc1C#N [Example 263, 6-((5-(1,3-Dimethyl-1H-pyrazol-4-yl)-7-((2-methyl-1H-imidazol-1-yl)methyl)-1-oxo-3,4-dihydroisoquinolin-2(1H)-yl)methyl)-4-ethoxynicotinonitrile] | 10 to 1000 nM
4 | 10 to 1000 nM | 10 to 1000 nM | CCOc1cc([C@H](C)N2CCc3c(cc(Cn4ccnc4C)cc3-c3cn(C)c(=O)cc3Cl)C2=O)ncc1C#N [Example 292] | 10 to 1000 nM
5 | < 10 nM | 10 to 1000 nM | CCOc1cc([C@H](C)N2CCc3c(cc(CCN(C)CC)cc3-c3cn(C)c(=O)cc3CC)C2=O)ncc1C#N [Example 193, (S)-4-ethoxy-6-(1-(7-(2-(ethyl(methyl)amino)ethyl)-5-(4-ethyl-1-methyl-6-oxo-1,6-dihydropyridin-3-yl)-1-oxo-3,4-dihydroisoquinolin-2(1H)-yl)ethyl)nicotinonitrile] | 10 to 1000 nM
6 | < 10 nM | 10 to 1000 nM | CCOc1cc([C@H](C)N2CCc3c(cc(CCN(C)CC)cc3-c3cn(CCO)nc3C)C2=O)ncc1C#N [Example 115, (S)-4-ethoxy-6-(1-(7-(2-(ethyl(methyl)amino)ethyl)-5-(1-(2-hydroxyethyl)-3-methyl-1H-pyrazol-4-yl)-1-oxo-3,4-dihydroisoquinolin-2(1H)-yl)ethyl)nicotinonitrile] | 10 to 1000 nM
7 | < 10 nM | 10 to 1000 nM | CCOc1cc([C@H](C)N2CCc3c(cc(Cn4cc(C)nc4C)cc3-c3cn(CCO)nc3C)C2=O)ncc1C#N [Example 272] | 10 to 1000 nM
8 | < 10 nM | 10 to 1000 nM | CCOc1cc([C@H](C)N2CCc3c(cc(Cn4ccnc4C)cc3-c3cc(CN(C)C)nn3C)C2=O)ncc1C#N (single isomer, unassigned) [Example 270] | 10 to 1000 nM
9 | < 10 nM | 10 to 1000 nM | CCOc1cc([C@H](C)N2CCc3c(cc(CCN(C)CC)cc3-c3cc(C)ncc3C(F)F)C2=O)ncc1C#N [Example 172, (S)-6-(1-(5-(5-(difluoromethyl)-2-methylpyridin-4-yl)-7-(2-(ethyl(methyl)amino)ethyl)-1-oxo-3,4-dihydroisoquinolin-2(1H)-yl)ethyl)-4-ethoxynicotinonitrile] | 10 to 1000 nM

More lines, now with the values behind:

Row | SMILES | IC50 (WDR5) | AC50 [1] | AC50 (MV4-11 cells)
10 | CCOc1cc(C(C)N2CCc3c(cc(CCN(C)CC)cc3-c3ccc(N)nc3C(F)F)C2=O)ncc1C#N (stereo not drawn) [Example 200, 6-(1-(5-(6-amino-2-(difluoromethyl)pyridin-3-yl)-7-(2-(ethyl(methyl)amino)ethyl)-1-oxo-3,4-dihydroisoquinolin-2(1H)-yl)ethyl)-4-ethoxynicotinonitrile] | 10 to 1000 nM | 10 to 1000 nM | 10 to 1000 nM
11 | CCOc1cc([C@H](C)N2CCc3c(CN4CC[C@@H](F)C4)cc(Cn4ccnc4NC)cc3C2=O)ncc1F [Example 14, 2-((S)-1-(4-ethoxy-5-fluoropyridin-2-yl)ethyl)-5-(((R)-3-fluoropyrrolidin-1-yl)methyl)-7-((2-(methylamino)-1H-imidazol-1-yl)methyl)-3,4-dihydroisoquinolin-1(2H)-one] | 10 to 1000 nM | 10 to 1000 nM | 10 to 1000 nM
12 | CCOc1cc([C@H](C)N2CCc3c(cc(CCN(C)CCO)cc3-c3cc(C)ncc3C)C2=O)ncc1C#N [Example 250] | 10 to 1000 nM | 10 to 1000 nM | 10 to 1000 nM
13 | CCOc1cc(CN2CCc3c(cc(CCN(C)CC)cc3-c3cc(N)cnc3C)C2=O)ncc1C#N [Example 201, 6-((5-(5-amino-2-methylpyridin-3-yl)-7-(2-(ethyl(methyl)amino)ethyl)-1-oxo-3,4-dihydroisoquinolin-2(1H)-yl)methyl)-4-ethoxynicotinonitrile] | 10 to 1000 nM | 10 to 1000 nM | 10 to 1000 nM
14 | CCOc1cc(CN2CCc3ccc(Cn4ccnc4NC)cc3C2=O)cnc1C#N [Example 96, 3-ethoxy-5-((7-((2-(methylamino)-1H-imidazol-1-yl)methyl)-1-oxo-3,4-dihydroisoquinolin-2(1H)-yl)methyl)picolinonitrile] | 10 to 1000 nM | 10 to 1000 nM | 10 to 1000 nM
15 | CNc1nccn1Cc1cc(CN2CC[C@@H](OC)C2)c2c(c1)C(=O)N([C@@H](C)c1cc(OC)c(F)cn1)CC2 [Example 36, 2-((S)-1-(5-fluoro-4-methoxypyridin-2-yl)ethyl)-5-(((R)-3-methoxypyrrolidin-1-yl)methyl)-7-((2-(methylamino)-1H-imidazol-1-yl)methyl)-3,4-dihydroisoquinolin-1(2H)-one] | 10 to 1000 nM | 10 to 1000 nM | 10 to 1000 nM
16 | CCOc1cc(CN2CCc3c(CN4CC(F)(F)C4)cc(Cn4ccnc4NC)cc3C2=O)cnc1C#N [Example 46, 5-((5((3,3-difluoroazetidin-1-yl)methyl)-7-((2-(methylamino)-1H-imidazol-1-yl)methyl)-1-oxo-3,4-dihydroisoquinolin-2(1H)-yl)methyl)-3-ethoxypicolinonitrile] | 10 to 1000 nM | 10 to 1000 nM | 10 to 1000 nM
17 | CNc1nccn1Cc1cc(CN2CC[C@H](F)C2)c2c(c1)C(=O)N([C@@H](C)c1cc(OC)c(F)cn1)CC2 [Example 44, 2-((S)-1-(5-fluoro-4-methoxypyridin-2-yl)ethyl)-5-(((S)-3-fluoropyrrolidin-1-yl)methyl)-7-((2-(methylamino)-1H-imidazol-1-yl)methyl)-3,4-dihydroisoquinolin-1(2H)-one] | 10 to 1000 nM | 10 to 1000 nM | 10 to 1000 nM
18 | CCOc1cc(CN2CCc3c(Cl)cc(Cn4ccnc4NC)cc3C2=O)cnc1C#N [Example 6, 5-((5-chloro-7-((2-(methylamino)-1H-imidazol-1-yl)methyl)-1-oxo-3,4-dihydroisoquinolin-2(1H)-yl)methyl)-3-ethoxypicolinonitrile] | 10 to 1000 nM | 10 to 1000 nM | 10 to 1000 nM
19 | CCOc1cc([C@H](C)N2CCc3c(CN4CCOCC4)cc(Cn4ccnc4NC)cc3C2=O)ncc1C#N [Example 12, (S)-4-ethoxy-6-(1-(7-((2-(methylamino)-1H-imidazol-1-yl)methyl)-5-(morpholinomethyl)-1-oxo-3,4-dihydroisoquinolin-2(1H)-yl)ethyl)nicotinonitrile] | 10 to 1000 nM | 10 to 1000 nM | 10 to 1000 nM
20 | CCN(C)CCc1cc2c(c(-c3cn(C)nc3C)c1)CCN([C@@H](C)c1cnc(F)c(OC)c1)C2=O [Example 123, (S)-5-(1,3-dimethyl-1H-pyrazol-4-yl)-7-(2-(ethyl(methyl)amino)ethyl)-2-(1-(6-fluoro-5-methoxypyridin-3-yl)ethyl)-3,4-dihydroisoquinolin-1(2H)-one] | < 10 nM | 10 to 1000 nM | 10 to 1000 nM
21 | CCOc1cc([C@H](C)N2CCc3c(cc(CCN4C[C@@H](O)[C@H]4C)cc3-c3cc(N)cnc3C(F)(F)F)C2=O)ncc1C#N [Example 214] | < 10 nM | 10 to 1000 nM | 10 to 1000 nM
22 | CCOc1cc([C@H](C)N2CCc3c(cc(CCN(C)CC)cc3-c3cc(CC#N)cnc3C)C2=O)ncc1C#N [Example 192, (S)-6-(1-(5-(5-(cyanomethyl)-2-methylpyridin-3-yl)-7-(2-(ethyl(methyl)amino)ethyl)-1-oxo-3,4-dihydroisoquinolin-2(1H)-yl)ethyl)-4-ethoxynicotinonitrile] | < 10 nM | 10 to 1000 nM | 10 to 1000 nM
23 | CNc1nccn1Cc1cc2c(c(-c3cn(C)nc3C(F)(F)F)c1)CCN(Cc1ccc(F)c(OC)c1)C2=O [Example 54, 2-(4-fluoro-3-methoxybenzyl)-5-(1-methyl-3-(trifluoromethyl)-1H-pyrazol-4-yl)-7-((2-(methylamino)-1H-imidazol-1-yl)methyl)-3,4-dihydroisoquinolin-1(2H)-one] | 10 to 1000 nM | 10 to 1000 nM | 10 to 1000 nM
24 | CCOc1cc([C@H](C)N2CCc3c(cc(CCN(C)CC)cc3-c3ccc(N)nc3C(F)(F)F)C2=O)ncc1C#N [Example 198, (S)-6-(1-(5-(6-amino-2-(trifluoromethyl)pyridin-3-yl)-7-(2-(ethyl(methyl)amino)ethyl)-1-oxo-3,4-dihydroisoquinolin-2(1H)-yl)ethyl)-4-ethoxynicotinonitrile] | 10 to 1000 nM | 10 to 1000 nM | < 10 nM

— patent publication US20220289732A1, “HETEROCYCLIC WDR5 INHIBITORS AS ANTI-CANCER COMPOUNDS” (NOVARTIS AG, priority 2019, published 2022)
